Measured values as given in patent publication US20240299496A1, “DRUG FOR TREATING FATTY LIVER AND NONALCOHOLIC STEATOHEPATITIS” (Osaka University, priority 2021, published 2024).
Where no end group is shown, it is not given here.

System: NASH model mice (MC4R-KO mice fed a high-fat diet)
Experiment: Body weight and liver weight of NASH model mice
Type: in vivo, mouse
Conditions: 5 mg/kg tail vein injection twice a week for four weeks, t-test
Excerpt: Melanocortin-4 receptor knockout mice (hereinafter also referred to as “MC4R-KO mice,” genetic background: C57BL/6J) were provided by Dr. Joel K Elmquist of University of Texas, Medical Center.
Subsequently, NASH was induced in the mice by feeding a high-fat diet to the MC4R-KO mice, as detailed in the below reference. […] Later, the diet was switched from the normal diet to a high-fat diet (HFD) and the high-fat diet was fed for 20 weeks. Thereby, NASH was developed in the mice. • Itoh M, Suganami T, Nakagawa N, et al. Melanocortin 4 receptor-deficient mice as a novel mouse model of nonalcoholic steatohepatitis. Am J Pathol 2011; 179: 2454-63.
Here, CE-2 (manufactured by CLEA Japan, Inc.) was used as the normal diet, and Western Diet (manufactured by EPS EKISHIN Co., Ltd., containing 0.21% of cholesterol+41% kcal of milk fat) was used as the high-fat diet.
Experiments were carried out by dividing the mice into two groups of an HMGB1 peptide administration group (HMGB1 administration group) and a control group (normal saline; NS administration; CTRL administration group). […]
The mice were euthanized twenty weeks after initiating the high-fat diet, and arterial blood was collected from the heart of the mice. […] In all of the following statistical analyses, significance was calculated by a t-test.

With “MGKGDPKKPRGKMSSYAFFVQTCREEHKKKHPDASVNFSEFSKK [HMGB1 peptide]” the “change of the body weight” value (from initiating administration until completion of breeding, vs control group) was “significant differences were not observed” and the body weight (twenty weeks after initiating high-fat diet, vs control group (normal saline)) was “significant differences were not observed”.
